From paper PMC11077972, “Optimization of the antifungal properties of the bacterial peptide EntV by variant analysis” (mBio, 2024)
Where a SMILES comes first, the peptide text is derived from it. Bridges are numbered along the chain shown (N, C = ends). [ ]: non-standard residue; d: D form. R8 = C=CCCCCCC[C@@](C)(N)C(=O)O; S5 = C=CCCC[C@](C)(N)C(=O)O

Legend:
[1] = system: C. albicans biofilm; experiment: C. albicans biofilm assay in artificial saliva medium (crystal violet); assay type: cell-based, Candida albicans; details: 10 nM peptide
Method: Briefly, C. albicans strains were grown in YPD broth for 18 hrs at 30°C with agitation and then sub-cultured for 4 hrs in the same conditions. Cells were then collected by centrifugation at 16,000 x g for 30 s, washed twice in PBS, and adjusted to a concentration of 5 × 10^6 cells/mL (measured with Countess II, Life Technologies) in PBS treated with the 10 nM peptide. The cell suspension was incubated for 1 hr at 30°C with agitation at 200 rpm. Then, 100 µL of the cell suspension was added to wells of a 96-well tissue culture-treated polystyrene plate (Falcon). The PBS and unadhered cells were removed and then replaced with 200 µL of the artificial saliva medium ([15], [60]) containing the 10 nM peptide. The plate was then incubated at 37°C for 48 h.
After incubation, the medium was gently removed along with any planktonic cells. The biofilm was then stained for 20 min with 50 µL of 0.08% crystal violet solution (Sigma). The crystal violet stain was then aspirated, and the wells were washed four times with sterile water. Biofilms were de-stained with 200 µL of 200 proof ethanol for 20 min, and 100 µL of the ethanol solution was transferred to a new well for analysis.

[2] = system: C. albicans; experiment: C. elegans survival assay after infection with C. albicans; assay type: in vivo, Candida albicans; details: 1 nM peptide; for Median survival: C. albicans infected C. elegans, 25°C, experiment with 12aa (i+7 staple)
Method: C. elegans infection assays were performed with strain glp-4(bn2);sek-1(km-4) ([40]), which were propagated and maintained on E. coli strain OP50 grown as lawns on nematode growth medium (NGM) agar using standard techniques ([58]). To synchronize the nematodes to the same stage of growth, L1 stage worms on non-starved plates were washed off, filtered through a 10- µm filter (pluriSelect, pluriStrainer 10 µm), harvested by centrifugation at 1,500 rpm for 60 seconds, transferred to OP50-seeded plates, and grown to the L4 stage.
To prepare the infection plates, fungal strains were grown in BHI broth overnight at 30°C with agitation. About 500 µL of the culture was plated onto BHI solid medium containing gentamycin (10 µg/mL) and grown for 24 hrs at 37°C. The synchronized L4 C. elegans nematodes were then washed off the OP50 plates in 2 mL sterile M9 buffer and washed once, centrifuging at 800 rpm for 30 seconds to collect the nematodes. Nematodes were infected by placing them on the fungal lawn for 4 hrs at 25°C. Following this exposure, they were washed off the plate and washed four times with 2 mL of sterile M9. The nematodes were then pipetted (~30 per well with two wells per condition for a total of ~60 worms assayed) into six-well plates with 2 mL of the liquid medium (20% BHI broth and 80% M9) containing 1 nM of the peptide. A DMSO-untreated control was used with each experiment. Plates were incubated at 25°C, and worm death was scored daily. Kaplan–Meier survival curves were generated and analyzed, as described in the quantification and statistical analysis section.

CC(C)C[C@@H]1NC(=O)[C@H](C)NC(=O)[C@H](CC(C)C)NC(=O)[C@H](CCC(N)=O)NC(=O)CNC(=O)[C@@](C)(NC(=O)[C@@H](N)C(C)C)CCC/C=C\CCCCCC[C@](C)(C(=O)N[C@H](C(=O)N[C@@H](CCC(N)=O)C(=O)N[C@@H](CS)C(N)=O)C(C)C)NC(=O)[C@H](Cc2c[nH]c3ccccc23)NC1=O [12aa (i+7 staple)] (H-V[S5]GQLALW[R8]VQC-NH2; staple (Z) 2-9)
Antifungal activity in biofilm assay [1]: fully active
Protection of C. elegans from C. albicans infection relative to parent peptide ([2]; survival curves, Mantel–Cox log rank): remained as effective as the original
Median survival ([2]; trial 1): 12 days
Median survival ([2]; trial 2): 11.5 days
